# Results: ChEMBL document CHEMBL1157539, “Thousands of chemical starting points for antimalarial lead identification” (Nature, 2010)
# Where “and” joins values, the source holds several entries; their conditions need not be identical. Equal entries are not always repeated.
# Tested on: Plasmodium falciparum
# Assay: GSK_TCMDC: Inhibition of Plasmodium falciparum 3D7 in whole erythrocytes, using parasite LDH activity as an index of growth.
# Type: functional, organism-based
Structure (SMILES),XC50,"XC50 (Plasmodium falciparum, 3D7) [nM]"
N#Cc1ccc2c(c1)CN(CC[C@H]1CC[C@H](NC(=O)/C=C/c3c[nH]c4ccccc34)CC1)CC2,897 nM,986
Cc1[nH]c(C)c(-c2ccc(Oc3ccc(OC(F)(F)F)cc3)cc2)c(=O)c1Br,563 nM and 112 nM,
COc1ccc2ncc(F)c(C(O)CN3CCC(NCc4ccc5c(n4)NC(=O)CO5)CC3)c2c1 (stereo not given),1110 nM and 367 nM,
CCC(CC(NCCCCNC(=O)c1ccc(NC(=O)c2ccc(Cl)cc2)cc1)c1ccccc1)c1ccccc1OC (stereo not given),666 nM,792
Cn1nc(-c2ccc(S(=O)(=O)NC3CCC(CN4CCC(c5c[nH]c6ccccc56)CC4)CC3)s2)cc1C(F)(F)F (stereo not given),835 nM,820
O=C1Nc2cccc3c2C1(CCCCN1CCC(c2cc4ccncc4[nH]2)CC1)CCC3 (stereo not given),911 nM,787
O=C(/C=C/c1cccc(F)c1)NC1CCC(CN2CCC(c3c[nH]c4ccccc34)CC2)CC1 (stereo not given),866 nM,713
O=C(/C=C/c1cccc(Cl)c1)NC1CCC(CN2CCC(c3c[nH]c4ccccc34)CC2)CC1 (stereo not given),721 nM,752
O=C(/C=C/c1ccc(Cl)cc1)NC1CCC(CN2CCC(c3c[nH]c4ccccc34)CC2)CC1 (stereo not given),800 nM,727
CC1=C(C(=O)NC2CCC(CN3CCC(c4c[nH]c5ccccc45)CC3)CC2)Cc2ccccc21 (stereo not given),833 nM,996
Cc1ccc(CC(C)NCC(O)c2cccc(C(F)(F)F)c2)cc1 (stereo not given),709 nM,
CC(=O)Nc1ccc2[nH]cc(C3CCN(CC4CCC(NC(=O)/C=C/c5ccc(Cl)c(Cl)c5)CC4)CC3)c2c1 (stereo not given),441 nM,719
O=C(CCc1ccc(Cl)cc1Cl)NC1CCC(CN2CCC(c3c[nH]c4ccccc34)CC2)CC1 (stereo not given),216 nM and 903 nM,
FC(F)(F)c1ccc(NC(=S)NC2CCC(CN3CCC(c4c[nH]c5ccccc45)CC3)CC2)cc1 (stereo not given),726 nM,392
O=C(/C=C/c1ccc(C(F)(F)F)cc1)NC1CCC(CN2CCC(c3c[nH]c4ccccc34)CC2)CC1 (stereo not given),964 nM and 369 nM,
O=C(Nc1ccccc1C(F)(F)F)NC1CCC(CN2CCC(c3c[nH]c4ccccc34)CC2)CC1 (stereo not given),946 nM,784

Structure (SMILES),XC50,"XC50 (Plasmodium falciparum, 3D7) [nM]"
O=C(/C=C/c1ccc(Cl)c(Cl)c1)NC1CCC(CN2CCC(c3c[nH]c4ccc(O)cc34)CC2)CC1 (stereo not given),417 nM and 140 nM,
S=C(NCCc1ccc(Cl)cc1)NC1CCC(CN2CCC(c3c[nH]c4ccccc34)CC2)CC1 (stereo not given),703 nM,703
Cc1c(C)c2c(c(C)c1O)CC[C@](C)(C(=O)NC1CCC(CN3CCC(c4c[nH]c5ccccc45)CC3)CC1)O2 (stereo not given in full),1120 nM,881
Cc1cc(=O)c(-c2ccc(Oc3cccc(C(F)(F)F)c3)cc2)c(C)[nH]1,629 nM and 209 nM,
O=C(/C=C/c1ccc(Cl)c(Cl)c1)NC1CCC(CN2CCC(c3c[nH]c4cc(C(F)(F)F)ccc34)CC2)CC1 (stereo not given),278 nM and 897 nM,
S=C(Nc1ccc2c(c1)OCCO2)NC1CCC(CN2CCC(c3c[nH]c4ccccc34)CC2)CC1 (stereo not given),1000 nM,653
O=C(Nc1ccccc1OC(F)(F)F)NC1CCC(CN2CCC(c3c[nH]c4ccccc34)CC2)CC1 (stereo not given),369 nM and 800 nM,
O=C(C=Cc1ccccc1Br)NC1CCC(CN2CCC(c3c[nH]c4ccccc34)CC2)CC1 (stereo not given),687 nM,737
O=C(/C=C/c1ccccc1O)NC1CCC(CN2CCC(c3c[nH]c4ccccc34)CC2)CC1 (stereo not given),461 nM,756
COc1ccc(C=CC(=O)NC2CCC(CN3CCC(c4c[nH]c5ccccc45)CC3)CC2)cc1OC (stereo not given),841 nM,801
COC(=O)c1ccc(CC(C)NCC(O)c2cccc(C(F)(F)F)c2)cc1 (stereo not given) [listing 1 of 2 here],765 nM,
Oc1cccc(-c2nc3cc(C4=NC5CCCCC5N4)ccc3[nH]2)c1 (stereo not given),530 nM,
COC(=O)/C=C/c1ccc(CC(C)NCC(O)c2cccc(C(F)(F)F)c2)cc1 (stereo not given),775 nM,
COc1ccc2ncc(F)c(CCN3CC(O)C(CNCc4nc5c(cc4Cl)OCC(=O)N5)C3)c2n1 (stereo not given),1280 nM and 954 nM,830
COC(=O)c1ccc(CC(C)NCC(O)c2cccc(C(F)(F)F)c2)cc1 (stereo not given) [listing 2 of 2 here],974 nM,1150
